The subject of data set [1] is human squamous skin carcinoma Cells (HatCat cells). The data set can be described thus: Suppression of the growth in culture of human squamous skin carcinoma cells. In kind it is cell-based. The note with it: growth over a two-day period (FIG. 1), read-out: IC50 for suppressing growth of human squamous skin carcinoma cells. As to the method:
FIG. 1 is a scatter plot illustrating the growth of human squamous skin carcinoma cells (HatCat 5K-Cells [10 μM]) over a two-day period;
Referring to FIG. 1, JS-K at 12 mg/mL in […] of acetone was active in suppressing the growth in culture of human squamous skin carcinoma Cells (HatCat cells) with IC50 concentrations <1000 nM, compared to no effect from dimethylsulfoxide (DMSO) or P1223 pluronic micellesAfd.

Data set [2] deals with UV-induced skin damage in SKH1 mice. The data set can be described thus: Animal efficacy for UV damage: UVB-exposed SKH1 mice, topical treatment, skin histology. Format: in vivo. As for the experimental part: Eight week-old female SKH1 mice were used. There were 5 mice in the control (no treatment, no UV) group and 10 mice in each treatment group. Treated mice all received one exposure of 600 Joules/m2 of UVB.
Immediately after UVB treatment, mice in each group were treated as follows: 200 uL of acetone only; JS-K at a concentration of 12 mg/mL in 200 uL of acetone; JS-K at a concentration of 6 mg/mL in 200 uL of acetone. Treatments were started immediately after UVB exposure and given twice (8 hours apart) on Day 1 and Day 2. On Day 3, mice were sacrificed and skin collected for histologic analysis.
H&E staining was used (FIG. 2A) to evaluate the count of Sunburn Cells, which are keratinocytes undergoing UV-induced apoptosis. […] The differences with controls were statistically significant for the higher dose of JS-K (12 mg/mL).
8-OG is a marker of oxydative damage.

pIC50: −log10 of the molar value. Where only a bound is given, the exact number is not on record here.

For orientation: pIC50 means the negative decadic logarithm of the IC50, by convention in mol/L.

As to `CCOC(=O)N1CCN(/[N+]([O-])=N/Oc2ccc([N+](=O)[O-])cc2[N+](=O)[O-])CC1` [JS-K, O2-(2,4-dinitrophenyl)1-[(4-ethoxycarbonyl)piperazin-1-yI]diazen-1-ium-1,2-diolate], in data set [1], the pIC50 was above 6.00. In addition, in data set [2] (600 Joules/m2 UVB, JS-K 6 or 12 mg/mL in 200 uL acetone topically twice daily Day 1-2, skin Day 3, significant only for 12 mg/mL), the “count of Sunburn Cells (keratinocytes undergoing UV-induced apoptosis), H&E staining” value is “moderate decrease in the number of Sunburn Cells with a dose effect”. The “percent of cells positive for 8-oxoguanine (8-OG), immunohistochemistry” value in data set [2] (600 Joules/m2 UVB, JS-K 6 or 12 mg/mL in 200 uL acetone twice daily Day 1-2, dose effect, significant for both doses) is “fewer cells from the mice treated with JS-K were positive for 8-OG”. In addition, in data set [2] (600 Joules/m2 UVB, JS-K 6 or 12 mg/mL, 12 mg/mL markedly greater effect than 6 mg/mL), the “epidermal thickness of UV-exposed skin” value is recorded as “dose dependent JS-K effect on epidermal thickness”. In addition, the “toxicity, skin irritation, skin ulceration or infection with the treatments” value in data set [2] (topical JS-K 6 or 12 mg/mL in 200 uL acetone twice daily Day 1-2) is listed as “no evidence of toxicity, skin irritation, skin ulceration, or infection”.

The values above are taken from patent US20190255040A1, “COMPOSITION AND METHOD FOR TOPICAL JS-K AS THERAPY FOR ACTINIC KERATOSIS” (JSK THERAPEUTICS, INC, priority 2018, published 2019).
